Patent publication US20220135591A1, “HETEROCYCLIC COMPOUNDS AS INHIBITORS OF MONOACYLGLYCEROL LIPASE (MAGL)” (Hoffmann-La Roche Inc., priority 2019, published 2022)

The molecules below were run against T1, MAGL (recombinant wild-type) (Homo sapiens, UniProt Q99685) (assay: 4-NPA assay: MAGL inhibitory activity by hydrolysis of 4-nitrophenylacetate, absorbance at 405 nm). Conditions: 4-NPA assay (values without footnote [b]).
T1 sequence (Q99685 1-303): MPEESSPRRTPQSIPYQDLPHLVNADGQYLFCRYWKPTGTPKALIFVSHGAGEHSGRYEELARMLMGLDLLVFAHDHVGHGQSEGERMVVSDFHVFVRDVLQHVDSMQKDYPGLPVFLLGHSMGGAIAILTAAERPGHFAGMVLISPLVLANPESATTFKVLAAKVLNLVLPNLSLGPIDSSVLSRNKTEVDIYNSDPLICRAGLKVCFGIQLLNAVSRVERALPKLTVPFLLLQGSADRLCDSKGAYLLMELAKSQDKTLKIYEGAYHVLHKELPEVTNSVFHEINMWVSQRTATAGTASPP
Type: biochemical
Procedure: Compounds were profiled for MAGL inhibitory activity by measuring the enzymatic activity of MAGL by following the hydrolysis of 4-nitrophenylacetate resulting in 4-nitrophenol, which absorbs at 405-412 nm (G. G. Muccioli, G. Labar, D. M. Lambert, Chem. Bio. Chem. 2008, 9, 2704-2710). This assay is hereinafter abbreviated “4-NPA assay”.
The assay was carried out in 384 well assay plates (black with clear bottom, non-binding surface treated, Corning Ref. 3655) in a total volume of 40 μL. Compound dilutions were made in 100% DMSO (VWR Chemicals 23500.297) in a polypropylene plate in 3-fold dilution steps to give a final concentration range in the assay from 25 μM to 1.7 nM. 1 μL compound dilutions (100% DMSO) were added to 19 μL MAGL (recombinant wild-type) in assay buffer (50 mM TRIS (GIBCO, 15567-027), 1 mM EDTA (Fluka, 03690-100 mL)). The plate was shaked for 1 min at 2000 rpm (Variomag Teleshake) and then incubated for 15 min at RT. To start the reaction, 20 μL 4-Nitrophenlyacetate (Sigma N-8130) in assay buffer with 6% EtOH was added. The final concentrations in the assay were 1 nM MAGL and 300 μM 4-Nitrophenylacetate. After shaking (1 min, 2000 rpm) and 5 min incubation at RT, the absorbance at 405 nm was measured for a first time (Molecular Devices, SpectraMax Paradigm). A second measurement was then done after incubation for 80 min at RT. From the two measurements, the slope was calculated by subtracting the first from the second measurement.

IC50 [nM] | Compound
9 | Cc1ccc2oc(N3CCN(C(=O)c4ccc(-c5noc(CC(C)(C)C)n5)cc4)CC3)nc2n1 [Example 5, (4-(5-methyloxazolo[4,5-b]pyridin-2-yl)piperazin-1-yl)(4-(5-neopentyl-1,2,4-oxadiazol-3-yl)phenyl)methanone]
25 | Cc1ccc2oc(N3CCN(C(=O)c4ccc5nc(N6CC7(CCCC7)C6)oc5c4)CC3)nc2n1 [Example 6, (2-(2-azaspiro[3.4]octan-2-yl)benzo[d]oxazol-6-yl)(4-(5-methyloxazolo[4,5-b]pyridin-2-yl)piperazin-1-yl)methanone]
262 | Cc1ccc2oc(N3CCN(C(=O)c4ccc(-c5noc(C(C)(C)CO)n5)cc4)CC3)nc2n1 [Example 7, (4-(5-(1-hydroxy-2-methylpropan-2-yl)-1,2,4-oxadiazol-3-yl)phenyl)(4-(5-methyloxazolo[4,5-b]pyridin-2-yl)piperazin-1-yl)methanone]
247 | CC(C)(C)c1nc(-c2ccc(C(=O)N3CCN(c4nc5nccc(Cl)c5o4)CC3)cc2)no1 [Example 8, (4-(5-(tert-butyl)-1,2,4-oxadiazol-3-yl)phenyl)(4-(7-chlorooxazolo[4,5-b]pyridin-2-yl)piperazin-1-yl)methanone]
27 | CC(C)(C)Cc1nc(-c2ccc(C(=O)N3CCN(c4nc5nccc(Cl)c5o4)CC3)cc2)no1 [Example 9, (4-(7-chlorooxazolo[4,5-b]pyridin-2-yl)piperazin-1-yl)(4-(5-neopentyl-1,2,4-oxadiazol-3-yl)phenyl)methanone]
2 | CC(C)(C)Cc1nc(-c2ccc(C(=O)N3CCN(c4nc5nc(Cl)ccc5o4)CC3)cc2)no1 [Example 10, (4-(5-chlorooxazolo[4,5-b]pyridin-2-yl)piperazin-1-yl)(4-(5-neopentyl-1,2,4-oxadiazol-3-yl)phenyl)methanone]
49 | Cc1ccc2oc(N3CCN(C(=O)c4ccc(-c5noc(C(C)(C)CF)n5)cc4)CC3)nc2n1 [Example 11, (4-(5-(1-fluoro-2-methylpropan-2-yl)-1,2,4-oxadiazol-3-yl)phenyl)(4-(5-methyloxazolo[4,5-b]pyridin-2-yl)piperazin-1-yl)methanone]
8 | CC(C)(C)c1nc(-c2ccc(C(=O)N3CCN(c4nc5nc(Cl)ccc5o4)CC3)cc2)no1 [Example 12, (4-(5-(tert-butyl)-1,2,4-oxadiazol-3-yl)phenyl)(4-(5-chlorooxazolo[4,5-b]pyridin-2-yl)piperazin-1-yl)methanone]
37 | CC(C)(C)Cc1nc(-c2ccc(C(=O)N3CCN(c4nc5ncccc5o4)CC3)cc2)no1 [Example 13, (4-(5-neopentyl-1,2,4-oxadiazol-3-yl)phenyl)(4-(oxazolo[4,5-b]pyridin-2-yl)piperazin-1-yl)methanone]
128 | CC(C)(C)c1nc(-c2ccc(C(=O)N3CCN(c4nc5ncccc5o4)CC3)cc2)no1 [Example 14, (4-(5-(tert-butyl)-1,2,4-oxadiazol-3-yl)phenyl)(4-(oxazolo[4,5-b]pyridin-2-yl)piperazin-1-yl)methanone]
352 | CCC(CC)c1nc2ccc(C(=O)N3CCN(c4nc5nc(C)ccc5o4)CC3)cc2o1 [Example 15, [2-(1-ethylpropyl)-1,3-benzoxazol-6-yl]-[4-(5-methyloxazolo[4,5-b]pyridin-2-yl)piperazin-1-yl]methanone]
10 | CC(C)(C)Cc1nnc(-c2ccc(C(=O)N3CCN(c4nc5nc(Cl)ccc5o4)CC3)cc2)o1 [Example 16, [4-(5-chlorooxazolo[4,5-b]pyridin-2-yl)piperazin-1-yl]-[4-[5-(2,2-dimethylpropyl)-1,3,4-oxadiazol-2-yl]phenyl]methanone]
36 | Cc1ccc2oc(N3CCN(C(=O)c4ccc5nc(C6CCCCC6)oc5c4)CC3)nc2n1 [Example 17, (2-cyclohexyl-1,3-benzoxazol-6-yl)-[4-(5-methyloxazolo[4,5-b]pyridin-2-yl)piperazin-1-yl]methanone]
434 | Cc1ccc2oc(N3CCN(C(=O)c4ccc5nc(CCC(F)(F)F)oc5c4)CC3)nc2n1 [Example 18, [4-(5-methyloxazolo[4,5-b]pyridin-2-yl)piperazin-1-yl]-[2-(3,3,3-trifluoropropyl)-1,3-benzoxazol-6-yl]methanone]
2 | CC(C)(C)Cn1cc(-c2ccc(C(=O)N3CCN(c4nc5nc(Cl)ccc5o4)CC3)cc2)cn1 [Example 19, [4-(5-chlorooxazolo[4,5-b]pyridin-2-yl)piperazin-1-yl]-[4-[1-(2,2-dimethylpropyl)pyrazol-4-yl]phenyl]methanone]
19 | CC(C)(CF)c1nc(-c2ccc(C(=O)N3CCN(c4nc5nc(Cl)ccc5o4)CC3)cc2)no1 [Example 20, (4-(5-chlorooxazolo[4,5-b]pyridin-2-yl)piperazin-1-yl)(4-(5-(1-fluoro-2-methylpropan-2-yl)-1,2,4-oxadiazol-3-yl)phenyl)methanone]
184 | CC/C=C/c1nc2ccc(C(=O)N3CCN(c4nc5nc(C)ccc5o4)CC3)cc2o1 [Example 21, [2-[(E)-but-1-enyl]-1,3-benzoxazol-6-yl]-[4-(5-methyloxazolo[4,5-b]pyridin-2-yl)piperazin-1-yl]methanone]
1250 | Cc1ccc2oc(N3CCN(C(=O)c4ccc5nc(C6CC6)oc5c4)CC3)nc2n1 [Example 22, (2-cyclopropyl-1,3-benzoxazol-6-yl)-[4-(5-methyloxazolo[4,5-b]pyridin-2-yl)piperazin-1-yl]methanone]
1550 | CC(=O)Cc1nc(-c2ccc(C(=O)N3CCN(c4nc5nc(Cl)ccc5o4)CC3)cc2)no1 [Example 23, 1-[3-[4-[4-(5-chlorooxazolo[4,5-b]pyridin-2-yl)piperazine-1-carbonyl]phenyl]-1,2,4-oxadiazol-5-yl]propan-2-one]
74 | CC(C)(F)c1nc(-c2ccc(C(=O)N3CCN(c4nc5nc(Cl)ccc5o4)CC3)cc2)no1 [Example 24, [4-(5-chlorooxazolo[4,5-b]pyridin-2-yl)piperazin-1-yl]-[4-[5-(1-fluoro-1-methyl-ethyl)-1,2,4-oxadiazol-3-yl]phenyl]methanone]
3 | CC(C)(C)Cc1noc(-c2ccc(C(=O)N3CCN(c4nc5nc(Cl)ccc5o4)CC3)cc2)n1 [Example 25, [4-(5-chlorooxazolo[4,5-b]pyridin-2-yl)piperazin-1-yl]-[4-[3-(2,2-dimethylpropyl)-1,2,4-oxadiazol-5-yl]phenyl]methanone]
206 | O=C(c1ccc(-c2noc(C3(F)CC3)n2)cc1)N1CCN(c2nc3nc(Cl)ccc3o2)CC1 [Example 26, [4-(5-chlorooxazolo[4,5-b]pyridin-2-yl)piperazin-1-yl]-[4-[5-(1-fluorocyclopropyl)-1,2,4-oxadiazol-3-yl]phenyl]methanone]
3 | CC(C)(C)Cn1cnc(-c2ccc(C(=O)N3CCN(c4nc5nc(Cl)ccc5o4)CC3)cc2)n1 [Example 27, [4-(5-chlorooxazolo[4,5-b]pyridin-2-yl)piperazin-1-yl]-[4-[1-(2,2-dimethylpropyl)-1,2,4-triazol-3-yl]phenyl]methanone]
12 | Cc1ccc2oc(N3CCN(C(=O)c4ccc(-c5ncn(CC(C)(C)C)n5)cc4)CC3)nc2n1 [Example 28, [4-[1-(2,2-dimethylpropyl)-1,2,4-triazol-3-yl]phenyl]-[4-(5-methyloxazolo[4,5-b]pyridin-2-yl)piperazin-1-yl]methanone]
3 | CC(C)(C)Cn1cnc(-c2ccc(C(=O)N3CCN(c4nc5nc(Cl)ccc5o4)CC3)cc2)c1 [Example 29, [4-(5-chlorooxazolo[4,5-b]pyridin-2-yl)piperazin-1-yl]-[4-[1-(2,2-dimethylpropyl)imidazol-4-yl]phenyl]methanone]
68 | CC(C)(C)c1nnc(-c2ccc(C(=O)N3CCN(c4nc5nc(Cl)ccc5o4)CC3)cc2)o1 [Example 30, [4-(5-tert-butyl-1,3,4-oxadiazol-2-yl)phenyl]-[4-(5-chlorooxazolo[4,5-b]pyridin-2-yl)piperazin-1-yl]methanone; 2,2,2-trifluoroacetic acid]
260 | Cc1ccc2oc(N3CCN(C(=O)c4ccc(-c5nnc(C(C)(C)C)o5)cc4)CC3)nc2n1 [Example 31, [4-(5-tert-butyl-1,3,4-oxadiazol-2-yl)phenyl]-[4-(5-methyloxazolo[4,5-b]pyridin-2-yl)piperazin-1-yl]methanone]
653 | CC(C)(O)Cc1nc(-c2ccc(C(=O)N3CCN(c4nc5nc(Cl)ccc5o4)CC3)cc2)no1 [Example 32, [4-(5-chlorooxazolo[4,5-b]pyridin-2-yl)piperazin-1-yl]-[4-[5-(2-hydroxy-2-methyl-propyl)-1,2,4-oxadiazol-3-yl]phenyl]methanone]
